Results as given in US20230285372A1, “Pharmaceutical use of (E)-3-arylheterocyclylprop-2-enoic acid derivatives” (MEDCURIUS INC., priority 2020, published 2023).

Legend:
HT-22 cells = assay: Protective effect on HT-22 cell damage caused by L-glutamate monosodium salt; type: cell-based, mouse; details: 15 mM L-glutamate
Method: (§1) Well-proliferated HT-22 cells, derived from mouse hippocampal neuronal cells in logarithmic growth phase, were selected, and they were counted after being subjected to trypsin digestion and dispersion. The cell density was adjusted with DMEM/F12 medium (containing 10% FBS and 1% double antibody). The cells were then inoculated in a 96-well plate at a density of 2,000 cells per well, and cultured in a cell incubator at 37° C. in atmosphere containing 5% CO2 for 24 hours. For the control group and the L-glutamate monosodium salt group (model group), serum-free DMEM/F12 medium was added, and the other wells were added with tested compounds of different concentrations; except that the serum-free DMEM/F12 medium was added to the control group. L-glutamate monosodium salt solution at the final concentration of 15 mM was added to the remaining wells. After 24 hours, the cell viability was detected with a luminescent cell viability assay kit.
as §1, with “group,” for “group.”
as §1, with “2.000” for “2,000”, “group,” for “group.”

[1] = tested on: MPTP-induced Parkinson's disease mouse; assay: Pole-climbing test, MPTP-induced Parkinson's disease mouse; type: in vivo; details: 40 days, vs model group
Method: Male C57 mouse were screened for their motor function by a mouse rod-rotating test, and unqualified ones were excluded from the test. […] MPTP was injected subcutaneously every 4 days in the model group and the drug administration group with a dosage of 25 mg/kg for 40 consecutive days. Each group of I-5 was administered once a day at 8:00 am and 8:00 pm (by intragastric administration), twice in total. […] The intragastric volume was 0.1 ml/10 g body weight, and the behavior test was started 40 days later. […] The storage time of the prepared liquid medicine was not more than 24 hours.
A climbing pole in the pole-climbing test was a rough wooden pole with a diameter of 2 cm and a length of 50 cm. The bottom of the wooden pole was located in the mouse home cage and was vertically oriented. When the mouse was placed on top of the wooden pole, it would naturally descend to the bottom of the wooden pole and reach the base of the pole. […] The mouse should have a pre-acclimation period of 2 days prior to the test, training five times a day. To the test day, the time required for the […] to reach the bottom (incubation period) was taken as an evaluation index to observe the effect of the tested compound on the motion ability of the mouse.

With `N#C/C=C/c1ccccn1` [Compound I-5] the “protection of HT22 cells against L-glutamate monosodium salt damage, in words” value (HT-22 cells; HT22 cells, comparison with positive control drug DMF) was “better effects than the positive control drug DMF”, the viability at 0.156 µM (HT-22 cells; Mus musculus, HT-22, 24 h, Table 1, Conc 0.156 μm, 24 hours, L-Glu alone 27.73 (I-5 32.92), read-out: cell viability) was 79.3% and the viability at 0.625 µM (HT-22 cells; Mus musculus, HT-22, 24 h, Table 1, Conc 0.625 μm, 24 hours, L-Glu alone 27.73 (I-5 32.92), read-out: cell viability) was 73.7%. The viability at 2.5 µM (HT-22 cells; Mus musculus, HT-22, 24 h, Table 1, Conc 2.5 μm, 24 hours, L-Glu alone 27.73 (I-5 32.92), read-out: cell viability) was 57.6%, the viability at 5 µM (HT-22 cells; Mus musculus, HT-22, 24 h, Table 1, Conc 5 μm, 24 hours, L-Glu alone 27.73 (I-5 32.92), read-out: cell viability) was 58.2% and the “latency of mouse reaching the base of the pole” value (from here on “latency”) ([1]; I-5 5 mg/kg bid intragastric, p<0.01) was “significantly shortened”. For the same compound, the “latency” value ([1]; I-5 10 mg/kg bid intragastric, p<0.0001) was “significantly shortened” and the “latency” value ([1]; I-5 20 mg/kg bid intragastric, p<0.0001) was “significantly shortened”.
